Measurements as given in patent US20230085307A1, “PYRIDAZINONE COMPOUND AND HERBICIDE” (NISSAN CHEMICAL CORPORATION, priority 2019, published 2023).

What was measured:
Italian ryegrass = assay: Test Example 5: herbicidal effect by foliage application, plastic box (Table 20, symbol K); assay type: in vivo, Italian ryegrass (Lolium multiflorum); conditions: for Herbicidal effect by foliage application, K: Italian ryegrass: amount of applied herbicide 320 g/ha
Outline: (§1)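 Foliar spray test: emulsion formulation diluted in water to a set application rate, sprayed onto 14-day-old plants raised in diluvial soil at 25° C to 30° C under glass. Both herbicidal effect and crop effect rated visually three weeks later.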

lambsquarters = assay: Test Example 5: herbicidal effect by foliage application, plastic box (Table 20, symbol O); assay type: in vivo, lambsquarters (Chenopodium album); conditions: for Herbicidal effect by foliage application, O: lambsquarters: amount of applied herbicide 320 g/ha
Outline: as §1

wild oat = assay: Test Example 5: herbicidal effect by foliage application, plastic box (Table 20, symbol I); assay type: in vivo, wild oat (Avena fatua); conditions: for Herbicidal effect by foliage application, I: wild oat: amount of applied herbicide 320 g/ha
Outline: as §1

southern crabgrass = assay: Test Example 5: herbicidal effect by foliage application, plastic box (Table 20, symbol F); assay type: in vivo, southern crabgrass (Digitaria ciliaris); conditions: for Herbicidal effect by foliage application, F: southern crabgrass: amount of applied herbicide 320 g/ha
Outline: as §1

persian speedwell = assay: Test Example 5: herbicidal effect by foliage application, plastic box (Table 20, symbol R); assay type: in vivo, Persian speedwell (Veronica persica); conditions: for Herbicidal effect by foliage application, R: persian speedwell: amount of applied herbicide 320 g/ha
Outline: as §1

green foxtail = assay: Test Example 5: herbicidal effect by foliage application, plastic box (Table 20, symbol G); assay type: in vivo, green foxtail (Setaria viridis); conditions: for Herbicidal effect by foliage application, G: green foxtail: amount of applied herbicide 320 g/ha
Outline: as §1

rice flat sedge = assay: Test Example 3: herbicidal effect by foliage application, Wagner pot (Table 18, symbol E); assay type: in vivo, rice flat sedge (Cyperus iria); conditions: 320 g/ha
Outline: (§2)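 Plants were sown in alluvial soil held under 0.1–0.5 cm standing water and grown 14 days in a greenhouse at 25–30 °C. An emulsifiable formulation, water-diluted to the set dose, was then sprayed onto the foliage, and effects were scored three weeks later using previously defined criteria.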

chickweed = assay: Test Example 5: herbicidal effect by foliage application, plastic box (Table 20, symbol P); assay type: in vivo, common chickweed (Stellaria media); conditions: for Herbicidal effect by foliage application, P: chickweed: amount of applied herbicide 320 g/ha
Outline: as §1

barnyard grass [1] = assay: Test Example 5: herbicidal effect by foliage application, plastic box (Table 20, symbol H); assay type: in vivo, barnyard grass (Echinochloa crus-galli); conditions: for Herbicidal effect by foliage application, H: barnyard grass: amount of applied herbicide 320 g/ha
Outline: as §1

redroot pigweed = assay: Test Example 5: herbicidal effect by foliage application, plastic box (Table 20, symbol N); assay type: in vivo, redroot pigweed (Amaranthus retroflexus); conditions: for Herbicidal effect by foliage application, N: redroot pigweed: amount of applied herbicide 320 g/ha
Outline: as §1

Chinese sprangletop = assay: Test Example 3: herbicidal effect by foliage application, Wagner pot (Table 18, symbol D); assay type: in vivo, chinese sprangletop (Leptochloa chinensis); conditions: 320 g/ha
Outline: as §2

velvetleaf = assay: Test Example 5: herbicidal effect by foliage application, plastic box (Table 20, symbol M); assay type: in vivo, velvetleaf (Abutilon theophrasti); conditions: for Herbicidal effect by foliage application, M: velvetleaf: amount of applied herbicide 320 g/ha
Outline: as §1

windgrass = assay: Test Example 5: herbicidal effect by foliage application, plastic box (Table 20, symbol L); assay type: in vivo, windgrass (Apera spica-venti); conditions: for Herbicidal effect by foliage application, L: windgrass: amount of applied herbicide 320 g/ha
Outline: as §1

blackgrass = assay: Test Example 5: herbicidal effect by foliage application, plastic box (Table 20, symbol J); assay type: in vivo, blackgrass (Alopecurus myosuroides); conditions: for Herbicidal effect by foliage application, J: blackgrass: amount of applied herbicide 320 g/ha
Outline: as §1

barnyard grass [2] = assay: Test Example 3: herbicidal effect by foliage application, Wagner pot (Table 18, symbol H); assay type: in vivo, barnyard grass (Echinochloa crus-galli); conditions: 320 g/ha
Outline: as §2

[3] = 320 g/ha, foliage application after 14-day growth, evaluated three weeks after application
[4] = foliage application, AAH 320 g/ha, three weeks after application
[5] = foliage application after 14-day growth, evaluated three weeks after application
[6] = foliage application, 320 g/ha, three weeks after application

Row | Compound | herbicidal effect on rice flat sedge (E) (rice flat sedge) | herbicidal effect on Chinese sprangletop (D) (Chinese sprangletop) | herbicidal effect on barnyard grass (H) (barnyard grass [2]) | herbicidal effect on E (rice flat sedge), rating 0-5 (rice flat sedge) | herbicidal effect on D (Chinese sprangletop), rating 0-5 (Chinese sprangletop) | herbicidal effect on H (barnyard grass), rating 0-5 (barnyard grass [2]) | Herbicidal effect by foliage application, K: Italian ryegrass (Italian ryegrass; [5]) | Herbicidal effect by foliage application, O: lambsquarters (lambsquarters; [5]) | Herbicidal effect by foliage application, I: wild oat (wild oat; [5]) | Herbicidal effect by foliage application, F: southern crabgrass (southern crabgrass; [5]) | Herbicidal effect by foliage application, R: persian speedwell (persian speedwell; [5]) | Herbicidal effect by foliage application, G: green foxtail (green foxtail; [5]) | Herbicidal effect by foliage application, P: chickweed (chickweed; [5]) | Herbicidal effect by foliage application, H: barnyard grass (barnyard grass [1]; [5]) | Herbicidal effect by foliage application, N: redroot pigweed (redroot pigweed; [5]) | Herbicidal effect by foliage application, M: velvetleaf (velvetleaf; [5]) | Herbicidal effect by foliage application, L: windgrass (windgrass; [5]) | Herbicidal effect by foliage application, J: blackgrass (blackgrass; [5]) | also measured
1 | Cc1nn(C)c(=O)c(-c2c(-c3ccc(C(F)(F)F)cc3)sc3c(Cl)cccc23)c1O [4-029] | 0 (Herbicidal rate of 5% or less (almost no effect)) | 0 (Herbicidal rate of 5% or less (almost no effect)) | 3 (Herbicidal rate of 40% or more and less than 70%) | – | – | – | – | – | – | – | – | – | – | – | – | – | – | – | herbicidal effect on K: Italian ryegrass (evaluation grade 0-5) (Italian ryegrass; [3]): 0 (Herbicidal rate of 5% or less (almost no effect)); herbicidal effect on O: lambsquarters (evaluation grade 0-5) (lambsquarters; [3]): 3 (Herbicidal rate of 40% or more and less than 70%); herbicidal effect on I: wild oat (evaluation grade 0-5) (wild oat; [3]): 0 (Herbicidal rate of 5% or less (almost no effect)); herbicidal effect on F: southern crabgrass (evaluation grade 0-5) (southern crabgrass; [3]): 0 (Herbicidal rate of 5% or less (almost no effect)); herbicidal effect on R: persian speedwell (evaluation grade 0-5) (persian speedwell; [3]): 0 (Herbicidal rate of 5% or less (almost no effect)); herbicidal effect on G: green foxtail (evaluation grade 0-5) (green foxtail; [3]): 0 (Herbicidal rate of 5% or less (almost no effect)); herbicidal effect on P: chickweed (evaluation grade 0-5) (chickweed; [3]): 5 (Herbicidal rate of 90% or more (almost completely withered)); herbicidal effect on H: barnyard grass (evaluation grade 0-5) (barnyard grass [1]; [3]): 0 (Herbicidal rate of 5% or less (almost no effect)); herbicidal effect on N: redroot pigweed (evaluation grade 0-5) (redroot pigweed; [3]): 0 (Herbicidal rate of 5% or less (almost no effect)); herbicidal effect on M: velvetleaf (evaluation grade 0-5) (velvetleaf; [3]): 0 (Herbicidal rate of 5% or less (almost no effect)); herbicidal effect on L: windgrass (evaluation grade 0-5) (windgrass; [3]): 4 (Herbicidal rate of 70% or more and less than 90%); herbicidal effect on J: blackgrass (evaluation grade 0-5) (blackgrass; [3]): 0 (Herbicidal rate of 5% or less (almost no effect))
2 | CCCC(=O)Oc1c(OC)nn(C)c(=O)c1-c1c(-c2cccc(OC(F)(F)F)c2)sc2ccccc12 [1-161] | – | – | – | 3 (Herbicidal rate of 40% or more and less than 70%) | 0 (Herbicidal rate of 5% or less (almost no effect)) | 1 (Herbicidal rate of 5% or more and less than 20%) | – | – | – | – | – | – | – | – | – | – | – | – | K: Italian ryegrass, herbicidal effect (Italian ryegrass; [4]): 0 (Herbicidal rate of 5% or less (almost no effect)); O: lambsquarters, herbicidal effect (lambsquarters; [4]): 0 (Herbicidal rate of 5% or less (almost no effect)); I: wild oat, herbicidal effect (wild oat; [4]): 0 (Herbicidal rate of 5% or less (almost no effect)); F: southern crabgrass, herbicidal effect (southern crabgrass; [4]): 0 (Herbicidal rate of 5% or less (almost no effect)); R: persian speedwell, herbicidal effect (persian speedwell; [4]): 0 (Herbicidal rate of 5% or less (almost no effect)); G: green foxtail, herbicidal effect (green foxtail; [4]): 0 (Herbicidal rate of 5% or less (almost no effect)); P: chickweed, herbicidal effect (chickweed; [4]): 0 (Herbicidal rate of 5% or less (almost no effect)); H: barnyard grass, herbicidal effect (barnyard grass [1]; [4]): 0 (Herbicidal rate of 5% or less (almost no effect)); N: redroot pigweed, herbicidal effect (redroot pigweed; [4]): 3 (Herbicidal rate of 40% or more and less than 70%); M: velvetleaf, herbicidal effect (velvetleaf; [4]): 1 (Herbicidal rate of 5% or more and less than 20%); L: windgrass, herbicidal effect (windgrass; [4]): 0 (Herbicidal rate of 5% or less (almost no effect)); J: blackgrass, herbicidal effect (blackgrass; [4]): 0 (Herbicidal rate of 5% or less (almost no effect))
3 | CCCC(=O)Oc1c(C)nn(C)c(=O)c1-c1c(-c2ccccc2SCC)sc2c(Cl)cccc12 [4-091] | 3 (Herbicidal rate of 40% or more and less than 70%) | 5 (Herbicidal rate of 90% or more (almost completely withered)) | 5 (Herbicidal rate of 90% or more (almost completely withered)) | – | – | – | 0 (Herbicidal rate of 5% or less (almost no effect)) | 1 (Herbicidal rate of 5% or more and less than 20%) | 0 (Herbicidal rate of 5% or less (almost no effect)) | 4 (Herbicidal rate of 70% or more and less than 90%) | 4 (Herbicidal rate of 70% or more and less than 90%) | 3 (Herbicidal rate of 40% or more and less than 70%) | 0 (Herbicidal rate of 5% or less (almost no effect)) | 3 (Herbicidal rate of 40% or more and less than 70%) | 3 (Herbicidal rate of 40% or more and less than 70%) | 2 (Herbicidal rate of 20% or more and less than 40%) | 0 (Herbicidal rate of 5% or less (almost no effect)) | 0 (Herbicidal rate of 5% or less (almost no effect)) | –
4 | CCCC(=O)Oc1c(C)nn(C)c(=O)c1-c1c(-c2ccccc2SC)sc2ccccc12 [1-035] | – | – | – | 4 (Herbicidal rate of 70% or more and less than 90%) | 0 (Herbicidal rate of 5% or less (almost no effect)) | 3 (Herbicidal rate of 40% or more and less than 70%) | – | – | – | – | – | – | – | – | – | – | – | – | herbicidal effect grade, K: Italian ryegrass (Italian ryegrass; [6]): 0 (Herbicidal rate of 5% or less (almost no effect)); herbicidal effect grade, O: lambsquarters (lambsquarters; [6]): 0 (Herbicidal rate of 5% or less (almost no effect)); herbicidal effect grade, I: wild oat (wild oat; [6]): 3 (Herbicidal rate of 40% or more and less than 70%); herbicidal effect grade, F: southern crabgrass (southern crabgrass; [6]): 0 (Herbicidal rate of 5% or less (almost no effect)); herbicidal effect grade, R: persian speedwell (persian speedwell; [6]): 0 (Herbicidal rate of 5% or less (almost no effect)); herbicidal effect grade, G: green foxtail (green foxtail; [6]): 0 (Herbicidal rate of 5% or less (almost no effect)); herbicidal effect grade, P: chickweed (chickweed; [6]): 1 (Herbicidal rate of 5% or more and less than 20%); herbicidal effect grade, H: barnyard grass (barnyard grass [1]; [6]): 0 (Herbicidal rate of 5% or less (almost no effect)); herbicidal effect grade, N: redroot pigweed (redroot pigweed; [6]): 0 (Herbicidal rate of 5% or less (almost no effect)); herbicidal effect grade, M: velvetleaf (velvetleaf; [6]): 0 (Herbicidal rate of 5% or less (almost no effect)); herbicidal effect grade, L: windgrass (windgrass; [6]): 0 (Herbicidal rate of 5% or less (almost no effect)); herbicidal effect grade, J: blackgrass (blackgrass; [6]): 0 (Herbicidal rate of 5% or less (almost no effect))
5 | CCSc1cccc(-c2sc3c(Cl)cccc3c2-c2c(O)c(C)nn(C)c2=O)c1 [4-092] | 4 (Herbicidal rate of 70% or more and less than 90%) | 3 (Herbicidal rate of 40% or more and less than 70%) | 5 (Herbicidal rate of 90% or more (almost completely withered)) | – | – | – | 2 (Herbicidal rate of 20% or more and less than 40%) | 3 (Herbicidal rate of 40% or more and less than 70%) | 1 (Herbicidal rate of 5% or more and less than 20%) | 4 (Herbicidal rate of 70% or more and less than 90%) | 5 (Herbicidal rate of 90% or more (almost completely withered)) | 3 (Herbicidal rate of 40% or more and less than 70%) | 4 (Herbicidal rate of 70% or more and less than 90%) | 3 (Herbicidal rate of 40% or more and less than 70%) | 5 (Herbicidal rate of 90% or more (almost completely withered)) | 3 (Herbicidal rate of 40% or more and less than 70%) | 5 (Herbicidal rate of 90% or more (almost completely withered)) | 0 (Herbicidal rate of 5% or less (almost no effect)) | –
6 | CSc1ccccc1-c1sc2c(C)cccc2c1-c1c(O)c(C)nn(C)c1=O [4-116] | 3 (Herbicidal rate of 40% or more and less than 70%) | 4 (Herbicidal rate of 70% or more and less than 90%) | 3 (Herbicidal rate of 40% or more and less than 70%) | – | – | – | 0 (Herbicidal rate of 5% or less (almost no effect)) | 0 (Herbicidal rate of 5% or less (almost no effect)) | 0 (Herbicidal rate of 5% or less (almost no effect)) | 0 (Herbicidal rate of 5% or less (almost no effect)) | 4 (Herbicidal rate of 70% or more and less than 90%) | 0 (Herbicidal rate of 5% or less (almost no effect)) | 4 (Herbicidal rate of 70% or more and less than 90%) | 0 (Herbicidal rate of 5% or less (almost no effect)) | 0 (Herbicidal rate of 5% or less (almost no effect)) | 0 (Herbicidal rate of 5% or less (almost no effect)) | 0 (Herbicidal rate of 5% or less (almost no effect)) | 0 (Herbicidal rate of 5% or less (almost no effect)) | –
